Test results: US20210322386A1, “METHODS OF DELAYING AND REVERSING ALZHEIMER'S DISEASE PROGRESSION” (Loma Linda University, priority 2018, published 2021)
Entries after “also recorded” stand apart in the source; their conditions may differ. Where two headings read alike, the source gives them in different places.

Assays:
[1] = tested on: mice fed a high-cholesterol diet; assay: Y-maze test of cognitive function in mice fed a high-cholesterol diet; assay type: in vivo; details: mice on high-cholesterol diet (standard chow containing 0.5% cholesterol), 8 weeks of treatment, about 0.4 mg anastrozole/animal/day in LabGel
Protocol: A pilot study was carried out to assess the safety profile and cognitive impact of anastrozole in 12-week old male mice. Mice were fed anastrozole or placebo (vehicle alone) for a period of 8 weeks using a hydrogel as the means of administration (n=6 per group). Because of the poor palatability of anastrozole in its available form, it was administered through a hydration gel especially designed for medication delivery (LabGel-ClearH20 catalog # 71-02-1081; Portland, Me.), LabGel consists of purified water, sucralose, fruit and natural flavoring, hydrocolloids, potassium sorbate, sodium benzoate, and phosphoric acid. […] Mice were monitored for health decline signs, and given an Appearance Score (Normal skin; skin tent on dorsum; hunched posture; eyes sunken in and severe skin tent; and failure to right self) and an Attitude Score (Normal; decreased activity; lethargy; non-responsiveness; and failure to flee when hand present in cage), as described (Bekkevold et al., J Am Assoc Lab Anim Sci, 52: 233-9, 2013).
12-week old male mice on either a normal or high-cholesterol diet were tested on the same day with an interval of 2 hours between the training 15 min) and testing (5 min) phases. Data were analyzed by one-way ANOVA and Bonferroni post-hoc test. […]

[2] = tested on: 12-week old male mice; assay: Pilot study of safety profile of anastrozole in mice (Appearance/Attitude Scores, weight gain, postmortem organs); assay type: in vivo
Protocol: A pilot study was carried out to assess the safety profile and cognitive impact of anastrozole in 12-week old male mice. Mice were fed anastrozole or placebo (vehicle alone) for a period of 8 weeks using a hydrogel as the means of administration (n=6 per group). Because of the poor palatability of anastrozole in its available form, it was administered through a hydration gel especially designed for medication delivery (LabGel-ClearH20 catalog # 71-02-1081; Portland, Me.), LabGel consists of purified water, sucralose, fruit and natural flavoring, hydrocolloids, potassium sorbate, sodium benzoate, and phosphoric acid. For each 236 mL dose of LabGel, 45 mg of anastrozole powder, 40 μL of red food coloring, and 1 mL of propylene glycol are thoroughly mixed and the resulting anastrozole is distributed into mouse cages at 3 grams LabGel/mouse/day in a custom--made container easily accessible to the mice. The final concentration of anastrozole in the LabGel is 0.1906 mg/mL and it is kept fresh by replacing it every 48 hours. In the experiment, mice consumed about 2 mL/mouse/day of LabGel equating to about 0.4 mg anastrozole/animal/day, which is consistent with the literature (Overk et al., J Neurosci Methods, 195: 194-9, 2011). Mice were monitored for health decline signs, and given an Appearance Score (Normal skin; skin tent on dorsum; hunched posture; eyes sunken in and severe skin tent; and failure to right self) and an Attitude Score (Normal; decreased activity; lethargy; non-responsiveness; and failure to flee when hand present in cage), as described (Bekkevold et al., J Am Assoc Lab Anim Sci, 52: 233-9, 2013).

[3] = biological target: T1, CYP27A1 enzyme (Homo sapiens, UniProt Q02318); details: from Mast et al., Mol. Pharmacol., 2015, cited from earlier work
T1 sequence (Q02318 34-531): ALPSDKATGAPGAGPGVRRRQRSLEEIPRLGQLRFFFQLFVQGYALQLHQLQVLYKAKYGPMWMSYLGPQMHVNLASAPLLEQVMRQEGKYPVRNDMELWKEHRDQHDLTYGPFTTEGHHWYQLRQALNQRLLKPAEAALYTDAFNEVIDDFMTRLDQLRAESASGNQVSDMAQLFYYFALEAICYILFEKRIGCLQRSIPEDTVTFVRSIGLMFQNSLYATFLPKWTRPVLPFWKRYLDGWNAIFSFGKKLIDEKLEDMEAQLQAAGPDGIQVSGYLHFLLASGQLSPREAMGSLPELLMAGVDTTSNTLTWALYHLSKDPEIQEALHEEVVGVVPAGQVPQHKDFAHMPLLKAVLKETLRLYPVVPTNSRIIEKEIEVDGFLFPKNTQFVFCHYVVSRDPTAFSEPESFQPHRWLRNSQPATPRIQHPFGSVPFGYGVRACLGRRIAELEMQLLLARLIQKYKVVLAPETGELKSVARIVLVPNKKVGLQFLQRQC

SMILES | inhibition of the CYP27A1 enzyme [3] | also measured
CC(C)(C#N)c1cc(Cn2cncn2)cc(C(C)(C)C#N)c1 [anastrozole] | Inhibitors of the CYP27A1 enzyme | cognitive function as measured by Y-maze test [1]: protects against cognitive loss; also recorded: ameliorates the negative effect of a high-cholesterol diet on cognitive function; signs of health decline (Appearance Score and Attitude Score) ([2]; 8 weeks, about 0.4 mg anastrozole/animal/day in LabGel): No signs of health decline; postmortem evaluation of major organs ([2]; after 8 weeks): no signs of toxicity; weight gain progression vs vehicle group ([2]; throughout the 8-week study): identical between both groups; inhibition of the CYP27A1 enzyme ([3]; listed as Anastrozole): shown to inhibit the CYP27A1 enzyme
Cc1cccc([C@H](C)c2cnc[nH]2)c1C [dexmedetomidine] | Inhibitors of the CYP27A1 enzyme | –
N#Cc1ccc(C2CCCc3cncn32)cc1 (stereo not shown) [fadrozole] | Inhibitors of the CYP27A1 enzyme | –
CC[C@@H]([C@H](C)O)n1ncn(-c2ccc(N3CCN(c4ccc(OC[C@@H]5CO[C@@](Cn6cncn6)(c6ccc(F)cc6F)C5)cc4)CC3)cc2)c1=O [posaconazole] | Inhibitors of the CYP27A1 enzyme | –
C[C@@H](c1nc(-c2ccc(C#N)cc2)cs1)[C@](O)(Cn1cncn1)c1ccc(F)cc1F [ravuconazole] | Inhibitors of the CYP27A1 enzyme | –
